For experiment [1], the target named is T1, NMDAR2A (Homo sapiens, UniProt Q12879).
T1 construct: expressed in transfected cells; host or cells: HEK cells (membrane extract)
Briefly: NMDAR agonist assay, [3H]MK-801 binding, NMDAR2A expressing HEK cell membranes. Type of experiment: biochemical. To be noted: 50 μM glutamate; for EC50: read-out: NMDAR2A: log EC50 (converted); for Emax: read-out: NMDAR2A: % maximal [3H]MK-801 binding relative to 1 mM glycine. Here is the method: (§1) Assays were conducted as described by Moskal et al., “GLYX-13: a monoclonal antibody-derived peptide that acts as an N-methyl-D-aspartate receptor modulator,” Neuropharmacology, 49, 1077-87, 2005. These studies were designed to determine if the test compounds act to facilitate NMDAR activation in NMDAR2A, NMDAR2B, NMDAR2C or NMDAR2D expressing HEK cell membranes as measured by increases in [^3H]MK-801 binding.
(§2) In the assay, 300 μg of NMDAR expressing HEK cell membrane extract protein was preincubated for 15 minutes at 25° C. in the presence of saturating concentrations of glutamate (50 μM) and varying concentrations of test compound (1×10^−15M−1×10^−7M), or 1 mM glycine. Following the addition of […] of [^3H]MK-801 (22.5 Ci/mmol), reactions were again incubated for 15 minutes at 25° C. (nonequilibrium conditions). Bound and free [^3H]MK-801 were separated via rapid filtration using a Brandel apparatus.
(§3) In analyzing the data, the DPM (disintegrations per minute) of [^3H]MK-801 remaining on the filter were measured for each concentration of test compound or for 1 mM glycine. The DPM values for each concentration of a ligand (N=2) were averaged. The baseline value was determined from the best fit curve of the DPM values modeled using the GraphPad program and the log(agonist) vs. response (three parameters) algorithm was then subtracted from all points in the dataset. The % maximal [3H]MK-801 binding was then calculated relative to that of 1 mM glycine: all baseline subtracted DPM values were divided by the average value for 1 mM glycine. The EC50 and % maximal activity were then obtained from the best fit curve of the % maximal [3H]MK-801 binding data modelled using the GraphPad program and the log(agonist) vs. response (three parameters) algorithm.
(§4) The tables below summarize the results for the wild type […] NMDAR2A, NMDAR2B, NMDAR2C, and NMDAR2D, and whether the compound is not an agonist (−), is an agonist (+), or is a strong agonist (++), where column A is based on the % maximal [3H]MK-801 binding relative to 1 mM glycine (−=0; <100%=+; and >100%=++); and column B is based on log EC50 values (0=−; ≥1×10^−9 M (e.g., −8)=+; and <1×10^−9 M (e.g., −10)=++).

In experiment [2] the target is T2, NMDAR2B (Homo sapiens, UniProt Q13224).
T2 construct: expressed in transfected cells; host or cells: HEK cells (membrane extract)
T2 sequence (Q13224 27-1484, species assumed, other chains not shown): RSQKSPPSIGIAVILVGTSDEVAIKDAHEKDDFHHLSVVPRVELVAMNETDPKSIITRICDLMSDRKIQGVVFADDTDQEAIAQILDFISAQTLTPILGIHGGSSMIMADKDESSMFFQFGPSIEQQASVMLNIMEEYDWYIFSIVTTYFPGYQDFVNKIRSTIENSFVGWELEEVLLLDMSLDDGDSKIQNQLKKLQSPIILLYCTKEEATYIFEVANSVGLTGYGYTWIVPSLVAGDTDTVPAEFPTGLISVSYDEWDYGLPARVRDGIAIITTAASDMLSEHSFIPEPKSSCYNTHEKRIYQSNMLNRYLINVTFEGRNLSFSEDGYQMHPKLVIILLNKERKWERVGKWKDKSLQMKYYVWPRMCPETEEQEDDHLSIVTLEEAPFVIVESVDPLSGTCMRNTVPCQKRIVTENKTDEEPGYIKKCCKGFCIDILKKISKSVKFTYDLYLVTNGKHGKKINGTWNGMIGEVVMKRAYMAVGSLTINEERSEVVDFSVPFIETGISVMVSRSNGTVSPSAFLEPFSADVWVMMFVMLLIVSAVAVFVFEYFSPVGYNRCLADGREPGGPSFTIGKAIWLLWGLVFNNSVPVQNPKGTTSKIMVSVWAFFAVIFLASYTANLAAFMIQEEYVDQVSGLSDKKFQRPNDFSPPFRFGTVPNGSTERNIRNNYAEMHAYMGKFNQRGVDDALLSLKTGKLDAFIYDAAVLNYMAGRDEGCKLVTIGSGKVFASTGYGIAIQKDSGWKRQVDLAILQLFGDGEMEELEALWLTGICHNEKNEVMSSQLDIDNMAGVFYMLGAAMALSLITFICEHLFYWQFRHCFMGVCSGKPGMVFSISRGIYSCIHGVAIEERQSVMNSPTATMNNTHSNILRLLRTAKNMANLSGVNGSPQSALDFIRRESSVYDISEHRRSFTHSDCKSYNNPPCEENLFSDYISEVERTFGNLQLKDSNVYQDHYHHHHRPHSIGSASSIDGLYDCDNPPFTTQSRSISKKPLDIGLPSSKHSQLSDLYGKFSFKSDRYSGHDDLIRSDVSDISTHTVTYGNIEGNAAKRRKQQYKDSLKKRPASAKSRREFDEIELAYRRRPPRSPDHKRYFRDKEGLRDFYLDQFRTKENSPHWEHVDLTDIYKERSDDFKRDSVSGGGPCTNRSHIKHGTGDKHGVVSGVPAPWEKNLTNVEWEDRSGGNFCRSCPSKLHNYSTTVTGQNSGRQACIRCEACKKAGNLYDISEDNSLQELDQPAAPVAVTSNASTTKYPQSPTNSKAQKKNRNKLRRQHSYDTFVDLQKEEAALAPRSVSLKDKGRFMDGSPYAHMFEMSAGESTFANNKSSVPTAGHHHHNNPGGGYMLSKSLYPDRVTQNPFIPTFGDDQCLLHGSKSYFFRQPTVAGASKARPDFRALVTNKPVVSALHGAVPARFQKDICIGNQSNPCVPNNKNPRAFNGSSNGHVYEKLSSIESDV
The experiment can be described thus: NMDAR agonist assay, [3H]MK-801 binding, NMDAR2B expressing HEK cell membranes. Type of experiment: biochemical. The note with it: 50 μM glutamate; for EC50: read-out: NMDAR2B log EC50 (converted); for Emax: read-out: NMDAR2B: % maximal [3H]MK-801 binding relative to 1 mM glycine. Here is the method: as §1, §2, §3, §4

T1 sequence (Q12879 23-1464, species assumed, other chains not shown): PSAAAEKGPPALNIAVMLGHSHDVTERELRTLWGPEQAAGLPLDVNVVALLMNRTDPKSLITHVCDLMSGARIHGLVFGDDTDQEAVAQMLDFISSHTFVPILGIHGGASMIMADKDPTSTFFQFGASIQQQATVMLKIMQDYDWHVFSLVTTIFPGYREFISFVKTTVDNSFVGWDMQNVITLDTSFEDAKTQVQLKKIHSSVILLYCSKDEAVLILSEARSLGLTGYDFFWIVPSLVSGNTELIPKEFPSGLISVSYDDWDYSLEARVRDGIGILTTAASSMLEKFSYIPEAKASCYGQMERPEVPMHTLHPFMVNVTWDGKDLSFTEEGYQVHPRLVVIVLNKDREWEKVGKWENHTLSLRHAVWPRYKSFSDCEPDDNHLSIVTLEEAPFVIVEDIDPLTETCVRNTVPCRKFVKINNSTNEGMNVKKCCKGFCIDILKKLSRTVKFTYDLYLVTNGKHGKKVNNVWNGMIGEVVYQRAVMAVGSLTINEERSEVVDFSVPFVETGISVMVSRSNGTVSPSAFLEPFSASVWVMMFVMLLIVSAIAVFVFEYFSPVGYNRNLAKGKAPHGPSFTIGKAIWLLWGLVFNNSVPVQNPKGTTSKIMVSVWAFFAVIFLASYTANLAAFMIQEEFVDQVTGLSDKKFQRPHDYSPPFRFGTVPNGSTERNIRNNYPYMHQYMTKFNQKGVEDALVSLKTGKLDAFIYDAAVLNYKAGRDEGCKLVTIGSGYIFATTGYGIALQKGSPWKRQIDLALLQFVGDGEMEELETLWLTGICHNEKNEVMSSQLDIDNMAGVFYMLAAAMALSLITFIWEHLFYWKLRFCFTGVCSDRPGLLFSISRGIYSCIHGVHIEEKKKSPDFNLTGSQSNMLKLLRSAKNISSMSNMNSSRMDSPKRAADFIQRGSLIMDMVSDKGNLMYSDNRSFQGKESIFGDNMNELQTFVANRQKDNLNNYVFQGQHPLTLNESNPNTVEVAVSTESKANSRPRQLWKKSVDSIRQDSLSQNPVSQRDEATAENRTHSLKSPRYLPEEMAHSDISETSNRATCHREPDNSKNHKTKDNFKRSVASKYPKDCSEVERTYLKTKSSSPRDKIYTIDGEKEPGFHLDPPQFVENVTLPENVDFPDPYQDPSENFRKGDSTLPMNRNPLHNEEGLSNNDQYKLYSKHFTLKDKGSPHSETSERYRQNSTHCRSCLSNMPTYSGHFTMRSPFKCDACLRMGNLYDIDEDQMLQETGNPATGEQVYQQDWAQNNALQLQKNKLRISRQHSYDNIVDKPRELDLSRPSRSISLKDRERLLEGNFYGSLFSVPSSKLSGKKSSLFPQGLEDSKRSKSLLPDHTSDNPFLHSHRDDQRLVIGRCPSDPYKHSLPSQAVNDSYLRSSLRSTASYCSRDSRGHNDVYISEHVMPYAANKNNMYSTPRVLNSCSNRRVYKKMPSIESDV

For `CC1CC(=O)N(c2ccc(F)cc2)C12CN(Cc1ccccc1)C2=O` (single isomer, unassigned) [BX, 2-benzyl-5-(4-fluorophenyl)-8-methyl-2,5-diazaspiro[3.4]octane-1,6-dione], in experiment [1], the EC50 is more than 100 nM. In addition, in experiment [2], the “NMDAR2B: % maximal [3H]MK-801 binding relative to 1 mM glycine” value is “+ (<100%=+)”.
For `CC1CC(=O)N(c2ccc(F)cc2)C12CN(Cc1ccccc1)C2=O` (single isomer, unassigned) [BY, 2-benzyl-5-(4-fluorophenyl)-8-methyl-2,5-diazaspiro[3.4]octane-1,6-dione], in experiment [1], the “NMDAR2A: % maximal [3H]MK-801 binding relative to 1 mM glycine” value is given as “− (−=0)”. In experiment [2], the “NMDAR2B: % maximal [3H]MK-801 binding relative to 1 mM glycine” value is on record as “− (−=0)” and the EC50 was more than 100 nM.
Consider `C[C@@H](O)[C@@H](C(=O)NCc1ccccc1)N1CC2(CCNC(=O)C2)C1=O` (single isomer, unassigned) [CA], for which the EC50 in experiment [1] and in experiment [2] was more than 100 nM each time. Moreover, the “NMDAR2B: % maximal [3H]MK-801 binding relative to 1 mM glycine” value in experiment [2] is “− (−=0)”.
For the molecule `C[C@@H](O)[C@@H](C(=O)N(C)C)N1CC2(CCNC(=O)C2)C1=O` (single isomer, unassigned) [CD], in experiment [1], the Emax was less than 100%.
For the molecule `CC1CC(=O)N(c2ccc(F)cc2)C12CN(CC(N)=O)C2=O` (single isomer, unassigned) [CE, 2-(5-(4-fluorophenyl)-8-methyl-1,6-dioxo-2,5-diazaspiro[3.4]octan-2-yl)acetamide], the EC50 in experiment [1] is more than 100 nM. Also, in experiment [2], the “NMDAR2B: % maximal [3H]MK-801 binding relative to 1 mM glycine” value is listed as “− (−=0)” and the EC50 was more than 100 nM.
Turning to `CC1CC(=O)N(c2ccc(F)cc2)C12CN(CC(N)=O)C2=O` (single isomer, unassigned) [CF, 2-(5-(4-fluorophenyl)-8-methyl-1,6-dioxo-2,5-diazaspiro[3.4]octan-2-yl)acetamide], in experiment [1], the “NMDAR2A: % maximal [3H]MK-801 binding relative to 1 mM glycine” value was “− (−=0)”. Also, the “NMDAR2B: % maximal [3H]MK-801 binding relative to 1 mM glycine” value in experiment [2] was “+ (<100%=+)”.
As for `CC1C(N)C(=O)N(C)C12CN(Cc1ccccc1)C2=O` (single isomer, unassigned) [CG, 7-amino-2-benzyl-5,8-dimethyl-2,5-diazaspiro[3.4]octane-1,6-dione], in experiment [1], the EC50 is more than 100 nM. For the same molecule, the “NMDAR2B: % maximal [3H]MK-801 binding relative to 1 mM glycine” value in experiment [2] is listed as “+ (<100%=+)”.
`CC1C(N)C(=O)N(C)C12CN(Cc1ccccc1)C2=O` (single isomer, unassigned) [CH, 7-amino-2-benzyl-5,8-dimethyl-2,5-diazaspiro[3.4]octane-1,6-dione]: the “NMDAR2A: % maximal [3H]MK-801 binding relative to 1 mM glycine” value in experiment [1] was “− (−=0)”. For the same molecule, in experiment [2], the “NMDAR2B: % maximal [3H]MK-801 binding relative to 1 mM glycine” value is on record as “− (−=0)” and the concentration giving a half-maximal response (EC50) is more than 100 nM.
Consider `COc1ccc(CN2CC3(CCN(C)C(=O)C3)C2=O)cc1` (single isomer, unassigned) [CJ, 2-(4-methoxybenzyl)-7-methyl-2,7-diazaspiro[3.5]nonane-1,6-dione], for which the Emax in experiment [2] was more than 100%.
In the case of `CCN1CCC2(CC1=O)CN(Cc1ccc(OC)cc1)C2=O` (single isomer, unassigned) [CK, 7-ethyl-2-(4-methoxybenzyl)-2,7-diazaspiro[3.5]nonane-1,6-dione], in experiment [1], the “NMDAR2A: % maximal [3H]MK-801 binding relative to 1 mM glycine” value is given as “− (−=0)” and the EC50 is more than 100 nM. In addition, in experiment [2], the “NMDAR2B: % maximal [3H]MK-801 binding relative to 1 mM glycine” value is recorded as “− (−=0)” and the EC50 is more than 100 nM.
As to `COc1ccc(CN2CC3(CCNC(=S)C3)C2=O)cc1` (single isomer, unassigned) [CM, 2-(4-methoxybenzyl)-6-thioxo-2,7-diazaspiro[3.5]nonan-1-one], the 50% effective concentration (EC50) in experiment [1] and in experiment [2] was more than 100 nM each time.
Take `COc1ccc(CN2CC3(CCNC(=S)C3)C2=S)cc1` (single isomer, unassigned) [CO, 2-(4-methoxybenzyl)-2,7-diazaspiro[3.5]nonane-1,6-dithione]: in experiment [2], the EC50 was more than 100 nM and the Emax was 0%.
For `COc1ccc(CN2CC3(CCNC(=S)C3)C2=S)cc1` (single isomer, unassigned) [CP, 2-(4-methoxybenzyl)-2,7-diazaspiro[3.5]nonane-1,6-dithione], the Emax in experiment [2] was less than 100%.
For the molecule `COc1ccc(CN2CC3(CCN(CC(C)C)C(=O)C3)C2=O)cc1` (single isomer, unassigned) [CS, 7-isobutyl-2-(4-methoxybenzyl)-2,7-diazaspiro[3.5]nonane-1,6-dione], in experiment [2], the Emax is more than 100%.
As to `COc1ccc(CN2CC3(CCN(CC(C)C)C(=O)C3)C2=O)cc1` (single isomer, unassigned) [CT, 7-isobutyl-2-(4-methoxybenzyl)-2,7-diazaspiro[3.5]nonane-1,6-dione], in experiment [2], the EC50 was more than 100 nM and the Emax amounted to 0%.
In the case of `O=C1CC2(CCN1)CN(Cc1ccccc1)C2=O` (single isomer, unassigned) [CU, 2-benzyl-2,7-diazaspiro[3.5]nonane-1,6-dione], in experiment [1], the Emax was determined as 0% and the EC50 was more than 100 nM.
As to `O=C1CC2(CCN1)CN(Cc1ccccc1)C2=O` (single isomer, unassigned) [CV, 2-benzyl-2,7-diazaspiro[3.5]nonane-1,6-dione], the Emax in experiment [1] was less than 100%.
In the case of `CN1CCC2(CC1=O)CN(Cc1ccccc1)C2=O` (single isomer, unassigned) [CX, 2-benzyl-7-methyl-2,7-diazaspiro[3.5]nonane-1,6-dione], in experiment [1], the “NMDAR2A: % maximal [3H]MK-801 binding relative to 1 mM glycine” value is “+ (<100%=+)”. In experiment [2], the “NMDAR2B: % maximal [3H]MK-801 binding relative to 1 mM glycine” value is listed as “+ (<100%=+)”.
Consider `CCN1CCC2(CC1=O)CN(Cc1ccccc1)C2=O` (single isomer, unassigned) [CY, 2-benzyl-7-ethyl-2,7-diazaspiro[3.5]nonane-1,6-dione], for which the EC50 in experiment [2] was more than 100 nM.
With `CNC(=O)[C@H]([C@@H](C)O)N1CC2(CCNC(=O)C2)C1=O` (single isomer, unassigned) [DA], the EC50 in experiment [1] was more than 100 nM. In experiment [2], the “NMDAR2B: % maximal [3H]MK-801 binding relative to 1 mM glycine” value is listed as “− (−=0)” and the EC50 is more than 100 nM.
On to `CNC(=O)[C@H]([C@@H](C)O)N1CC2(CCNC(=O)C2)C1=O` (single isomer, unassigned) [DB], for which, in experiment [1], the “NMDAR2A: % maximal [3H]MK-801 binding relative to 1 mM glycine” value is “− (−=0)”. The “NMDAR2B: % maximal [3H]MK-801 binding relative to 1 mM glycine” value in experiment [2] is listed as “++ (>100%=++)”.
As for `NC(=O)CN1CC2(CCNC(=O)C2)C1=O` (single isomer, unassigned) [DC, 2-(1,6-dioxo-2,7-diazaspiro[3.5]nonan-2-yl)acetamide], the Emax in experiment [1] is less than 100%.
As for `NC(=O)CN1CC2(CCNC(=O)C2)C1=O` (single isomer, unassigned) [DD, 2-(1,6-dioxo-2,7-diazaspiro[3.5]nonan-2-yl)acetamide], in experiment [1], the Emax came out at 0% and the EC50 is more than 100 nM.
With `CN1CC2(CCNC(=O)C2)C1=O` (single isomer, unassigned) [DG, 2-methyl-2,7-diazaspiro[3.5]nonane-1,6-dione], in experiment [2], the EC50 was more than 100 nM and the Emax came to 0%.
Take `CN1CC2(CCNC(=O)C2)C1=O` (single isomer, unassigned) [DH, 2-methyl-2,7-diazaspiro[3.5]nonane-1,6-dione]: the Emax in experiment [2] is more than 100%.
For `CC1CC(=O)N(C)C12CN(CC(N)=O)C2=O` (single isomer, unassigned) [DI, 2-(5,8-dimethyl-1,6-dioxo-2,5-diazaspiro[3.4]octan-2-yl)acetamide], in experiment [1], the Emax is less than 100%.
As to `CC1CC(=O)N(C)C12CN(CC(N)=O)C2=O` (single isomer, unassigned) [DJ, 2-(5,8-dimethyl-1,6-dioxo-2,5-diazaspiro[3.4]octan-2-yl)acetamide], in experiment [1], the Emax amounted to 0% and the EC50 is more than 100 nM.
For the molecule `CC1CC(=O)N(c2ccc(F)cc2)C12CN([C@H](C(N)=O)[C@@H](C)O)C2=O` (single isomer, unassigned) [DK], in experiment [2], the EC50 was more than 100 nM.
Take `CC1CC(=O)N(c2ccc(F)cc2)C12CN([C@H](C(N)=O)[C@@H](C)O)C2=O` (single isomer, unassigned) [DL]: the “NMDAR2A: % maximal [3H]MK-801 binding relative to 1 mM glycine” value in experiment [1] is “+ (<100%=+)”. In addition, the “NMDAR2B: % maximal [3H]MK-801 binding relative to 1 mM glycine” value in experiment [2] is recorded as “− (−=0)”.
Regarding `CC1C(O)C(=O)N(C)C12CN(Cc1ccccc1)C2=O` (single isomer, unassigned) [DM, 2-benzyl-7-hydroxy-5,8-dimethyl-2,5-diazaspiro[3.4]octane-1,6-dione], the EC50 in experiment [2] was more than 100 nM.

By EC50 is commonly meant the concentration giving half of the maximal effect.

The record behind these values is US12157736B2, “Spiro-lactam NMDA modulators and methods of using same” (Tenacia Biotechnology (Hong Kong) Co., Limited, priority 2016, dated 2024).
